From the NIST ThermoML archive (doi:10.1016/j.fluid.2017.08.022)

Conditions: for mass density: 100 kPa, Liquid, Buoyancy - hydrostatic balance with magnetic suspension - one sinker

CCCCn1cc[n+](C)c1.[Cl-] [1-butyl-3-methylimidazolium chloride]
surface tension liquid-gas [mN/m]
Conditions	Ring tensiometer	Wilhelmy Plate
303.11 K	50.32	–
308.23 K	–	49.64
308.27 K	50.3	–
313.06 K	–	49.26
313.07 K	49.73	–
318.04 K	49.68	–
318.07 K	–	48.97
323.1 K	49.23	48.58
327.9 K	–	48.24
327.96 K	48.8	–
333.82 K	–	47.81
333.85 K	48.35	–
338.23 K	48.24	–
338.28 K	–	47.55
342.85 K	47.76	–
343.23 K	–	47.16
348.79 K	47.38	–
348.85 K	–	46.9
353.81 K	–	46.5
353.87 K	47.16	–
357.26 K	–	46.29
357.34 K	46.88	–
364.83 K	46.46	–
364.9 K	–	45.76

Conditions	mass density [kg/m3]
313.05 K	1073.4
318.21 K	1070.57
323.11 K	1067.9
328.37 K	1065.5
334.27 K	1062.01
338.89 K	1059.46
343.88 K	1056.78
349.01 K	1054.21
353.91 K	1051.34
357.34 K	1049.12
364.78 K	1044.98

CCCCCCn1cc[n+](C)c1.[Cl-] [1-hexyl-3-methylimidazolium chloride]
surface tension liquid-gas [mN/m]
Conditions	Ring tensiometer	Wilhelmy Plate
303.19 K	39.83	–
303.22 K	–	39.37
308.21 K	–	39.15
308.22 K	39.58	–
312.93 K	–	38.95
312.95 K	39.37	–
318.33 K	39.1	38.69
323.1 K	–	38.45
323.12 K	38.84	–
328.18 K	–	38.17
328.2 K	38.54	–
333.27 K	–	37.94
333.31 K	38.3	–
338.68 K	–	37.66
338.71 K	37.97	–
343.01 K	–	37.44
343.06 K	37.74	–
348.1 K	–	37.16
348.15 K	37.52	–
353.53 K	–	36.93
353.63 K	37.19	–
358.12 K	–	36.68
358.24 K	37	–
363.07 K	–	36.42
363.17 K	36.72	–

Conditions	mass density [kg/m3]
303.22 K	1035.05
308.25 K	1032.18
313 K	1029.5
318.38 K	1026.54
323.18 K	1023.64
328.31 K	1020.97
333.34 K	1017.64
338.73 K	1014.46
343.06 K	1011.76
348.19 K	1009.28
353.71 K	1006.44
358.14 K	1004
363.17 K	1001.49
